# Results as given in ChEMBL document CHEMBL1150244, “Periglaucines A-D, anti-HBV and -HIV-1 alkaloids from Pericampylus glaucus” (J Nat Prod, 2008).
# Assays:
# [1] = Cytotoxicity against human C8166 cells after 72 hrs by MTT assay; assay type: cell-based
# [2] = Selectivity index, ratio of CC50 for human HepG2.2.15 cells to IC50 for HBV e-antigen secretion; assay type: functional
# [3] = system: Human immunodeficiency virus 1; experiment: Antiviral activity against HIV1 in human C8166 cells assessed as protection against viral-induced cytopathic effect by syncytium reduction assay; assay type: functional, organism-based; details: Human immunodeficiency virus 1, C8166
# [4] = Selectivity index, ratio of CC50 for human C8166 cells to EC50 for HIV1; assay type: toxicity, cell-based; details: read-out: Ratio CC50/EC50
# [5] = Cytotoxicity against human HepG2.2.15 cells by MTT assay; assay type: cell-based, HepG2 2.2.15
# [6] = system: Hepatitis B virus; experiment: Antiviral activity against HBV assessed as inhibition of viral surface antigen secretion in HepG2.2.15 cells by ELISA; assay type: functional, organism-based; details: HepG2 2.2.15
# [7] = system: Hepatitis B virus; experiment: Antiviral activity against HBV assessed as inhibition of viral e-antigen secretion in HepG2.2.15 cells by ELISA; assay type: functional, organism-based; details: HepG2 2.2.15
# [8] = Selectivity index, ratio of CC50 for human HepG2.2.15 cells to IC50 for HBV surface antigen secretion; assay type: functional
Structure (SMILES),CC50 at 72 h [1] [µM],Ratio CC50/IC50 [2],EC50 [3] [µM],selectivity ratio [4],CC50 [5] [µM],IC50 [6] [µM],IC50 [7] [µM],Ratio CC50/IC50 [8]
COc1cc2c(cc1OC)[C@@H]1Cc3ccc(OC)c(OC)c3C(=O)N1CC2,307,<1,14.1,18.8,3000,140,> 7470,22.4
COc1ccc2c(c1OC)C(=O)N1CCc3cc4c(cc3[C@@H]1C2)OCO4,–,–,–,–,> 3400,> 3400,> 3400,–
COc1c(OC)c2c3c(nccc3c1OC)-c1cc(O)ccc1-2 [IMERUBRINE],493,–,10.9,45.7,> 3880,930,> 3880,>4.17
CO[C@@H]1C(=O)C[C@]23CCN(C)[C@@]24C[C@@H](O[C@]14OC)c1cc2c(cc13)OCO2 [PERIGLAUCINE A],> 536,<1,204,4.03,2960,1040,3410,2.85
CO[C@H]1C(=O)C[C@]23CCN(C)[C@@]24C[C@@H](O[C@]14OC)c1cc2c(cc13)OCO2 [PERIGLAUCINE B],> 536,<1,389,1.61,640,470,3090,1.36
CO[C@@H]1C(=O)C[C@]23CC(=O)N(C)[C@@]24C[C@@H](O[C@]14OC)c1cc2c(cc13)OCO2 [PERIGLAUCINE C],> 516,<1,162,3.29,2360,1720,> 3690,1.37
CO[C@@H]1C(=O)C[C@]23C[C@H](CC(C)=O)N(C)[C@@]24C[C@@H](O[C@]14OC)c1cc2c(cc13)OCO2 [PERIGLAUCINE D],> 466,<1,334,1.65,2060,670,3010,3.07
Cc1cn([C@H]2C[C@H](N=[N+]=[N-])[C@@H](CO)O2)c(=O)[nH]c1=O [ZIDOVUDINE],–,–,0.0108,471,–,–,–,–
